Data taken from patent EP2229935A1, “Peptide derivatives or pharmaceutically acceptable salts thereof, method for producing the same, use of said derivatives and pharmaceutical composition” (Nebolsin, Vladimir Evgenievich, priority 1997, dated 1999).
Counter-ions that a name gives are not always drawn. Like-named read-outs stand apart in the source and are kept apart here. Marks after values point to notes of the source that are not given here.

Experiments:
[1] = tested on: Lewis pulmonary carcinoma (LLC); assay: Lewis pulmonary carcinoma growth; format: in vivo; conditions: mice with LLC, day 12; for Growth inhibition percent: compound in drinking water; for Tumor volume (mm^3): compound in drinking water from 24 hours after transplantation
Description: Experiments were carried out on male mice with initial body mass 18-20 g. Each group included 10 animals. […] Administration of compounds II, III, IX, X, XII, XIV, XV, XVI, XVII, XIX, XXII, XLVII in drinking water was commenced 24 hours following transplantation and continued till the end of experiment. Effect of the compounds on Lewis rat pulmonary carcinoma (LLC) was estimated by day 12 of experiment by change in tumor volume expressed in mm^3.

mongrel male mice = assay: Delayed hypersensitivity induced by picryl chloride (TCB), local ointment; format: in vivo; conditions: mice, TCB
Description: Effect study of the compounds on the delayed type hypersensitivity reaction induced in mice by 2.4.6-trichlorobenzol (TCB) was carried out according to the method of Tarayre et al. [Tarayre J.P., Barbara M., Aliaga M., Tisne-Versilles. Comparative actions of immunosuppressants, glucocorticoids and non-steroidal antiinflammatory drugs on various models of delayed hypersensitivity and on a non-immune inflammation in mice. Arzneim.-Forsch. Drug Res. (1990), Vol. 40, pip.1125-1131].
Studies were conducted on mongrel male mice with initial body mass 30-35 g. Each group included 10 animals. Mice were sensitized with 0.1 ml 3% TCB solution in acetone application on a shaved abdominal area. In 7 days, the anaphylaxis-provoking TCB dose (0.025 ml of 3% solution) was applied on both surfaces of the right ear. In 30 minutes 0.05 ml of the test ointment were rubbed into the same surfaces. 24 hours after edema induction, mice were sacrified, ears were cut off and weighed. Allergic reaction intensity was assessed by change in weight in grams of the right ear (the test one) in relation to the left ear (the control ear).
Allergic reaction inhibition expressed in percent was calculated according to the formula: 100-[(R-L(exper.))/(L):(R-L(control))/(L)x100](%) [formula] where R - the right ear weight, L - the left ear weight.
The test compounds were applied on the ear in the form of 1% and 5% ointment the base of which were 10% methylcellulose solution and propylene glycol at 1:1 ratio.
Groups of animals: • Group 1 - control, ointment base without active substance was applied on the ear of animals. • Group 2 - ointment base comprising 1% compound III was applied on the ear of animals. • Group 3 - ointment base comprising 1% compound XVII was applied on the ear of animals. • Group 4 - ointment base comprising 5% compound XLVIII was applied on the ear of animals.

white mongrel male rats [2] = assay: Carrageenan paw edema, cutaneous gel application (series 2); format: in vivo; conditions: for Volume of paws (conditional units) Right: 0.1 ml of 1% gel on right paw, 4 hours after carrageenan; for Volume of paws (conditional units) left: 1% gel group, left paw; for Volume of paws (conditional units) left / Inflammation inhibition (%) / Volume increment: 4 hours; for Inflammation inhibition (%) / Volume increment: 1% gel
Description: (§1) Experiment was carried out on white mongrel male rats weighing 280-300 g. Carrageenan-induced edema was caused according to the method of Winter et al. [[inter et al. In: De Rosa M., Giroud J.P., Willoughby D.A. Studies of the mediators of the acute inflammatory reponse induced in rats in different sites by carrageenan and turpentine. […] Paw volume measurement was done using a plethysmograph (Ugo Basile) 1, 3 and 4 hours after carrageenan administration. Inhibition of inflammatory reaction expressed in percent, was calculated according to the formula: 100-[(R-L(exper.))/(L):(R-L(control))/(L)x100](%) [formula] where R - the right paw volume, L - the left paw volume.
Series 2 of experiment. 2% carrageenan solution was injected sublaterally into paws of rats. In 1 minute 0.1 ml of gel comprising the test compounds were applied on the right paw. Gel base consisted of propylene glycol dissolved in the mixture of water and ethanol. Concentration of the compounds in the gel was 1%. Volume of paws was measured 4 hours after carrageenan administration.

mongrel male rats [3] = assay: Hypolipidemic activity: experimental hyperlipidemia (atherogenic load); conditions: atherogenic diet, oral last four days; for HDL-CS / LDL-CS+ VLDL-CS / Total CS / Triglycerides: blood; for Kcs: cholesterol index;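 for all read-outs here: serum drawn 18 h after the final dose from rats deprived of food over that interval, groups of 10 animals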
Description: (§2) Hypolipidemic activity of the compounds of general formula (I) was studied on the model of experimental hyperlipidemia [Arichi H., Kumura H.O. Effects of stibens compounds of roots of polygonum cuspidatium on the lipid metabolism. […] Each group of animals included 10 rats. […] Blood samples were taken for analysis 18 hours after the last administration of the test substances during which period food was taken away from rats.
(§3) The following parameters were determined: total cholesterol (total CS); high density lipoprotein cholesterol (HDL-CS); low density lipoprotein cholesterol and very low density lipoprotein cholesterol (LDL-CS and VLDL-CS); triglycerides (TG). Blood serum CS level was determined according to the Ilk method [Biochemical examination in the clinic. […] HDL-CS level was measured in supernatant following heparine-manganese precipitation of LDL+VLDL [Titov V.N., Brener E.D., Khaltaiev N.G., Zadoya A.A., Tvorogova M.G. A method and diagnostic significance of cholesterol level study in α-lipoproteins. […] LDL-CS level determination was carried out by calculation according to the formula presented in the work Friedwald W.T. [Friedwald W.T., Levy K.J., Leus R. Fat transport in lipoproteins: an integrated approach to mechanism and disorders.
(§4) To assess the effect of the test compounds on the ratio of atherogenic and antiatherogenic blood serum lipoproteins, cholesterol index (Kcs) was calculated according to the formula presented in the work [Klimov A.N., Nikulcheva N.G. Lipoproteins, dylipoproteinemias and atherosclerosis.
(§5) Blood serum TG level was determined using the conventional method [Friedwald W.T., Levy R.I., Fredrickson D.S. Estimation of concentration of low-density lipoprotein cholesterol in plasma, without use of preparative ultracentrifuge.

hydroxyl radical = assay: Hydroxyl radical formation in the Fenton reagent (chemiluminescence); format: biochemical
superoxide anion-radical = assay: Superoxide anion-radical formation in the xantine-xantine oxidase system (chemiluminescence); format: biochemical
Description: Effect of the compounds of general formula (I) on change in chemiluminescence (CL) determined by hydroxyl radical ( OH) and superoxide anion-radical (O2-), in the model chemical and enzymatic systems.
5 to 10 ml of the test compounds dissolved in water were at needed concentration introduced into a cuvette. A total sample volume was 0.5 ml. • B. Superoxide anion-radical in the mixture of xantine and xantine oxidase [Afanas'ev I., Suslova T., Cheremisina Z. et al. Study of antioxidant properties of metal aspartates.
Incubation medium comprised 5 mM KH2PO4; 0.2 IU/ml xantine oxidase. Xantine at concentration 1 mM was introduced into sample through a dispencer. Luceginine (0.2 mM) was used in this system as luminiscence sensitizer.
CL signal indication was performed by its integration every 10 seconds for 5 minutes. CL flash recording duration after mixing ingredients, depended on a particular process kinetics. For each system, CL light sum (mV) was determined in the control samples without preparations (I-) and in samples comprising respective concentrations of preparations (I+). To estimate CL inhibition (activation) degree, the I+/I- ratio (in relative units) was found in the studied systems.
AOF formation and effect of the test compounds on this process were recorded on the Luminometer-1251 instrument (LKB, Sweden).
Because of such "distension" of the kinetic curve, chemiluminescence light sum was recorded during the first 3-5 minutes which reflected a total amount of light quantums produced in the system till achieving the maximum CL intensity values.

[4] = tested on: Strain Aichi of type A human influenza virus; format: in vivo; conditions: mice, influenza virus; 500 µg/kg
[5] = tested on: Isolate HIV-1/IV17 of type 1 human immunodeficiency virus; assay: Viability of MT-4 cells acutely infected with HIV-1; format: cell-based; conditions: Human immunodeficiency virus 1, MT4, 168 h, day 7, series 2 (infected cells 24, non-infected 88), read-out: Viability of cells in percent
Description: Study was carried out on the culture of human lymphoblastoid cells MT-4. Isolate HIV-1/IV17 of type 1 human immunodeficiency virus from the collection of the D.I.Ivanovsky Institute for Virology was used in experiment. The test compounds of general formula (I): III, VI, VII were introduced into cellular culture at concentrations 1.0; 0.1 and 0.01 µg/ml. The reference drug Azidothymidine was introduced at a dose 0.05 µM/ml. The compounds were introduced into the culture of MT-4 cells at a dose 1000 TCD50 one hour prior to virus introduction. Viability of MT-4 cells was estimated by day 7 of experiment.
Viability of cells was the main efficacy parameter of the test compounds.

mongrel male rats [6] = conditions: po, 96 h
Description: as §2, §3, §4, §5

[7] = tested on: hepatic P-450 cytochrome system; assay: Hexenal sleep duration in mice; format: in vivo; conditions: CBF1 mice, oral 3 days, control 25.91 ± 1.57
Description: Change in Hexenal sleep (HS) duration is the in vivo measurable index of hepatic P-450 cytochrome system condition.
Studies were carried out on male mice of the lines BALB/c*h75, C57B1/6, CBA, DBA/2, first generation CBF1 and BDF1 hybrides, with initial mass 18-20 g, each group including 10 mice; and on mongrel male guinea pigs with initial mass 250-300 g, each group including 24 animals. All the test compounds (from II to LII) were administered orally in drinking water and for three days at doses 50 and 500 µg/kg. Hexenal hydrochloride at a dose […] of animal mass was administered 24 hours after the last drug administration, except for line BALB/c*h75 mice, which were administered Hexenal at a dose 60 µg/kg at the same terms, and guinea pigs for which Hexenal dose was 30 µg/kg. HS duration was determined in minutes.

[8] = tested on: Lewis pulmonary carcinoma (LLC); assay: Lewis pulmonary carcinoma spontaneous metastasizing, oral administration; format: in vivo; conditions: BDF1 female mice with LLC, oral 24 days; for Mean number of metastases: day 25
Description: Each group included 15 animals. 0.3 ml of LLC tumor tissue suspension was intramuscularly injected to mice. Henks solution was used as a solvent. […] Moscow (1992) 13 pp.]. […]

white mongrel male rats [9] = assay: Carrageenan paw edema, oral administration (series I); format: in vivo
Description: as §1
Series I of experiment. […] The reference drug Naproxene was once administered at a dose 20 µg/kg 1 hour before edema induction. Each group included 10 animals.

[10] = 0.1 mM, control of the series as in the table
[11] = 1 mM, control of the series 7839 ± 171, 1120 ± 163, 4974 ± 283 or 1332 ± 172
[12] = 0.01 mM, control of the series as in the table
[13] = 1 mM, control of the series 5616 ± 173, 5391 ± 195, 7290 ± 128 or 6776 ± 150
[14] = intragastral four times 50 µg/kg

Compound | Growth inhibition percent [1] | Tumor volume (mm^3) [1] | Volume of paws (conditional units) Right (white mongrel male rats [2]) | Volume of paws (conditional units) left (white mongrel male rats [2]) | Inflammation inhibition (%) (white mongrel male rats [2]) | Volume increment (white mongrel male rats [2]) | HDL-CS (mongrel male rats [3]; 50 µg/kg) | Total CS (mongrel male rats [3]; 50 µg/kg) | Triglycerides (mongrel male rats [3]; 50 µg/kg) | HDL-CS (mongrel male rats [3]; 500 µg/kg) | Total CS (mongrel male rats [3]; 500 µg/kg) | Triglycerides (mongrel male rats [3]; 500 µg/kg) | Kcs (mongrel male rats [3]; 50 µg/kg) | Kcs (mongrel male rats [3]; 500 µg/kg) | Chemiluminiscence intensity (mV) + σn-1 (hydroxyl radical; [10]) | relative effect: I+/I- (hydroxyl radical; 1 mM) | Chemiluminiscence intensity (mV) + σn-1 (hydroxyl radical; [11]) | relative effect: 1+/I- (superoxide anion-radical; 0.01 mM) | Chemiluminiscence intensity (mV) + σn-1 (superoxide anion-radical; [12]) | relative effect: 1+/I- (superoxide anion-radical; 0.1 mM) | other results
O=C(O)CCCC(=O)NCCc1c[nH]c2ccccc12 [compound XVII, N-GLUTARYLTRYPTAMINE] | 48% | 1367 ± 233** mm^3 | – | – | – | – | – | – | – | – | – | – | – | – | – | – | – | – | – | – | Reaction inhibition (%) (mongrel male mice; 1% ointment): 24%; weight increment (mongrel male mice; 1% ointment): 6.1 ± 0.59 g; Weight of years (g) Right (mongrel male mice; 1% ointment on right ear 30 minutes after challenge, 24 hours): 21.6 ± 1.02 g; Weight of years (g) left (mongrel male mice; left (control) ear of animals given 1% ointment): 15.5 ± 1.02 g
N[C@@H](Cc1c[nH]cn1)C(=O)NCCC(=O)O [compound XXXVI, N-L-HISTIDYL-β-ALANINE] | – | – | 2.23 ± 0.42 conditional units | 1.86 ± 0.16 conditional units | 50% | 0.37 ± 0.07 | – | – | – | – | – | – | – | – | – | – | – | – | – | – | –
NCCC(=O)NCCc1c[nH]c2ccccc12 [compound XIII] | – | – | 2.29 ± 0.18 conditional units | 1.82 ± 0.34 conditional units | 35% | 0.47 ± 0.08 | 23,9±1,9 | 76,3±5,5*^A | 201,2±8,7***^A | 27,8±2,3*^A | 69,3±3,7***^A | 190,0±11,7***^A | 2,19±0,16***^A | 1,49±0,1***^A | – | – | – | – | – | – | LDL-CS+ VLDL-CS (mongrel male rats [3]; 50 µg/kg): 52,4±3,9**^A; LDL-CS+ VLDL-CS (mongrel male rats [3]; 500 µg/kg): 41,5±2,9***^A
COC(=O)[C@H](Cc1c[nH]cn1)NC(=O)CC[C@H](N)C(=O)O [compound VII, γ -L-GLUTAMYL-HISTIDINE METHYL ETHER DIHYDROCHLORIDE] | – | – | – | – | – | – | 26,0±1,9 | 72,3±4,9**^A | 250,6±12,0 | 22,3±2,2 | 78,1±3,3 | 251,4±12,71 | 1,78±0,12***^A | 2,5±0,17**^A | 1158 ± 102 mV | 0.15 | 165 ± 7 mV | 0.91 | 5082 ± 278 mV | 0.72 | Chemiluminiscence intensity (mV) + σn-1 (superoxide anion-radical; [10]): 4050 ± 291 mV; relative effect: 1+/I- (superoxide anion-radical; 1 mM): 0.20; Chemiluminiscence intensity (mV) + σn-1 (superoxide anion-radical; [13]): 1114 ± 51 mV; increase in MLT, survival rate and protection degree [4]: most manifested; viability at 0.01 µg/mL ([5]; 0.01 µg/ml): 34%; viability at 0.1 µg/mL ([5]; 0.1 µg/ml): 49%; viability at 1 µg/mL ([5]; 1.0 µg/ml): 51%; LDL-CS+ VLDL-CS (mongrel male rats [6]; 0.05 mg/kg): 46,3±3,2**^A; LDL-CS+ VLDL-CS (mongrel male rats [6]; 0.5 mg/kg): 55,8±3,9**^A; Hexenal sleep duration (minutes) ([7]; 50 µg/kg): 17.62 ± 0.96* minutes; Hexenal sleep duration (minutes) ([7]; 500 µg/kg): 16.99 ± 1.33* minutes
O=C(O)CCC(=O)NCCc1c[nH]cn1 [compound II, N-SUCCINYLHISTAMINE] | 61% | 1025 ± 150** mm^3 | – | – | – | – | – | – | – | – | – | – | – | – | 693 ± 42 mV | 0.16 | 175 ± 21 mV | 0.97 | 5229 ± 140 mV | 0.88 | relative effect: I+/I- (hydroxyl radical; 1 µM): 0.86; Chemiluminiscence intensity (mV) + σn-1 (hydroxyl radical; 1 µM, control of the series as in the table): 961 ± 42 mV; relative effect: I+/I- (hydroxyl radical; 0.01 mM): 0.69; Chemiluminiscence intensity (mV) + σn-1 (hydroxyl radical; [12]): 772 ± 44 mV; relative effect: I+/I- (hydroxyl radical; 0.1 mM): 0.62; Chemiluminiscence intensity (mV) + σn-1 (superoxide anion-radical; [10]): 4753 ± 89 mV; relative effect: 1+/I- (superoxide anion-radical; 1 mM): 0.58; Chemiluminiscence intensity (mV) + σn-1 (superoxide anion-radical; [13]): 3143 ± 156 mV; Mean number of metastases ([8]; 50 µg/kg): 44.3 ± 8.0; Mean number of metastases ([8]; 500 µg/kg): 32.9 ± 4.8*^2; Metastasizing inhibition percent ([8]; 50 µg/kg): 5.5%; Metastasizing inhibition percent ([8]; 500 µg/kg): 30.0%; Hexenal sleep duration (minutes) ([7]; 500 µg/kg): 21.72 ± 1.24* minutes; Inflammation inhibition (%) (white mongrel male rats [9]; [14]): 12%; Volume increment (white mongrel male rats [9]; [14]): 0.64 ±0.05*^!; Volume of paws (conditional units) left (white mongrel male rats [9]; [14]): 1.28 ± 0.28 conditional units; Volume of paws (conditional units) Right (white mongrel male rats [9]; intragastral four times 50 µg/kg 72, 48, 24 and 1 hour before): 1.92 ± 0.65 conditional units
O=C(O)Cc1ccccc1Nc1c(Cl)cccc1Cl [Voltaren, reference compound] | – | – | 1.99 ± 0.24 conditional units | 1.63 ± 0.26 conditional units | 48% | 0.40 ± 0.03 | – | – | – | – | – | – | – | – | – | – | – | – | – | – | –
